According to patent US20260257993A1, “COMPOUND, RUBBER BLEND CONTAINING THE COMPOUND, VEHICLE TIRE COMPRISING THE RUBBER BLEND IN AT LEAST ONE COMPONENT, PROCESS FOR PRODUCING THE COMPOUND, AND USE OF THE COMPOUND AS AN AGEING PROTECTANT AND/OR ANTIOZONANT AND/OR DYE” (Continental Reifen Deutschland GmbH, priority 2021, published 2026):

Test: Measurement of oxidation induction time (OIT) by DSC
Conditions: with liquid polyisoprene LIR-50, isothermal 180° C., O2 atmosphere 50 mL/min, DSC peak
Description: The compounds of formula II) and III) were investigated under laboratory conditions for their potential protective effect as aging stabilizers by measurement of the oxidation induction time.
To this end the compounds of formula II) and III) and 6-PPD in each case together with a polymer (liquid synthetic polyisoprene (IR), LIR-50, Kuraray, weight average molecular weight distribution Mw=54 000 g/mol, glass transition temperature Tg=−63° C.) were heated at constant temperature (180° C.) until onset of oxidation (start temperature 35° C., heating to 170° C. at a heating rate of 20 K/min (kelvin per minute), heating to 180° C. at a heating rate of 1 K/min; purge gas: nitrogen (N2), volume flow 50 mL/min). The specimen was isothermally maintained for 5 minutes at 180° C. under an N2 atmosphere and the atmosphere was then switched to an 02 atmosphere (volume flow 50 mL/min).
Oxidation was determined via a peak using DSC (differential scanning calorimetry).
The time in minutes to oxidation was measured.
With `CC(C)CC(C)Nc1ccc(Nc2ccccc2)cc1` (stereo not drawn) [6-PPD, N-(1,3-dimethylbutyl)-N′-phenyl-p-phenylenediamine, reference compound] the “Oxidation induction time: time to oxidation” value (from here on “Oxidation induction time: time”) was 116 ± 10 min.
In the case of `CC(C)CC(C)Nc1ccc2[nH]c(-c3ccccc3)cc2c1` (stereo not drawn) [formula II), 2-phenyl-5-(1,3-dimethylbutylamino)-1H-indole], the “Oxidation induction time: time” value is reported as 105 ± 10 min.
With `CC(C)CC(C)Nc1ccc2[nH]c(C3CCCCC3)cc2c1` (stereo not drawn) [formula III), 2-cyclohexyl-5-(1,3-dimethylbutylamino)-1H-indole] the “Oxidation induction time: time” value was 205 ± 10 min.
